Test results taken from US8703758B2, “Bicyclic compound” (Takeda Pharmaceutical Company Limited, priority 2010, dated 2014).

What was measured:
human ACC2 = target: T1, human ACC2 (Homo sapiens, UniProt O00763); assay: Measurement of ACC2 inhibitory activity (malachite green, recombinant ACC2 (Nd)); type: biochemical; settings: read-out: ACC2 inhibitory rate (%)
T1 construct: His6 (from vector pFAST-BacHTa); made in house; host or cells: SF-9 insect cells, recombinant baculovirus BAC-ACC2 (Nd)
Description: The ACC2 inhibitory action of the compound of the present invention was evaluated by the following method.
(1) Cloning of Human ACC2 Gene and Preparation of Recombinant Baculovirus
Human ACC2 gene was cloned by PCR using a human skeletal muscle cDNA library (Clontech) as a template and Primer 1 and Primer 2 shown below. Primer 1 and Primer 2 were prepared by adding SalI, XbaI restriction enzyme recognition sequences based on the information of the base sequence of human ACC2 gene (Genbank Accession U89344).
(§1) PCR was performed using Pyrobest DNA polymerase (TAKARA BIO INC.). The obtained PCR product was cloned to pT7 Blue vector (Novagen) and after confirmation of the base sequence, digested with restriction enzymes SalI and XbaI. The obtained DNA fragment was inserted into pFAST-BacHTa (Invitrogen) digested with restriction enzymes SalI and XbaI to give expression plasmid ACC2/pFAST-BacHTa.
A plasmid for expression of ACC2 without a mitochondrial targeting sequence was prepared by PCR using the expression plasmid as a template, and Primer 3 (SalI restriction enzyme recognition sequence was added) and Primer 4 prepared by reference to the information of human ACC2 gene base sequence (Genbank Accession U89344).
as §1, with “Pyrobest-DNA” for “Pyrobest DNA”, “AflII.” for “XbaI.”, “ACC2/pFAST-BacHTa” for “pFAST-BacHTa (Invitrogen)”, “AflII” for “XbaI”, “ACC2mito7/pFAST-BacHTa.” for “ACC2/pFAST-BacHTa.”
Using the expression plasmid ACC2mito7/pFAST-BacHTa and BAC-TO-BAC Baculovirus Expression System (Invitrogen), virus stock BAC-ACC2 of recombinant Baculovirus (N terminal deleted (hereinafter Nd)) was prepared.
(2) Preparation of ACC2 (Nd) Protein
SF-9 cells (Invitrogen) were inoculated to a medium (2 L) for insect cells (Sf-900IISFM medium (Invitrogen) containing 10% fetal bovine serum (Trace), 50 mg/L Gentamicin (Invitrogen), 0.1% Pluronic F-68 (Invitrogen)) at 0.5×10^6 cells/mL, and cultured with shaking in Wave Bioreactor (Wave) at 27° C., 20 rpm, rocking angle 6°, oxygen concentration 30%.
On day 4 of the culture, 3 L of the medium for insect cells was added, the rocking angle was set to 8°, and the cells were further cultured. On day 5 of the culture, 100 mL of recombinant Baculovirus BAC-ACC2 (Nd) was added, 5 L of the medium for insect cells was further added, the rocking angle was set to 11°, and the cells were cultured for 3 days. The culture medium was centrifuged at 1000×g for 10 min to give virus-infected cells. The cells were washed with phosphate buffered saline (Invitrogen) and centrifuged under the same conditions. The obtained cells were cryopreserved at −80° C.
The cryopreserved cells were thawed in ice and suspended in 900 mL of 25 mM HEPES buffer (pH 7.5) containing 10% Glycerol, 0.13 M NaCl, 1 mM EDTA, 25 mM Sodium β-Glycerophosphate and 1 mM Sodium Orthovanadate, and supplemented with Complete Protease Inhibitor (Nippon Boehringer Ingelheim Co., Ltd.). The obtained suspension was homogenized three times in a polytron homogenizer (Kinematica) at 20,000 rpm for 30 sec. The obtained cell disruption solution was clarified by centrifugation at 31000×g for 60 min, and filtered through a 0.45 μm filter. The filtrate was passed through a column packed with 60 mL of Ni-NTA Super Flow Gel (QUIAGEN) at a flow rate of about 5 mL/min. The column was washed with buffer A (50 mM HEPES (pH 7.5) containing 0.3 M NaCl), further washed with buffer A containing 20 mM Imidazole, and eluted with buffer A containing 100 mM Imidazole. The eluate was concentrated with Vivaspin 20 (Vivascience) with a molecular weight cut off of 30K. The obtained concentrate was dialyzed against 50 mM HEPES (pH 7.5) containing 10 mM MgCl2, 2 mM Dithiothreitol, 10 mM Tripotassium Citrate and 0.3 M NaCl. The inner dialysate was filtered through a 0.22 μm filter to give ACC2 (Nd). […]

[1] = Respiratory quotient (RQ) measurement in rats on Western diet; type: in vivo, rat; settings: 20 mg/kg by gavage, male F344/Jcl rats, Mean ± S.D., N = 5
Description: 5-week-old male F344/Jcl rats (CLEA Japan, Inc., Tokyo) were acclimated to the rearing environment for 1 week after purchase and the diet was changed to Western diet (D12079B, Research diet). They were used for the experiment of Respiratory quotient (RQ) measurement at 8-week-old. For the RQ measurement experiment, the body weight was measured in the late afternoon (15:30-16:30) of the previous day and the morning (8:00-9:00) of the day, and the rats with high or low body weight increase were excluded. To the animals were administered by gavage 15 mL/kg of a liquid diet (F2LCW, Oriental Yeast Co., Ltd) prepared to a concentration of 4.95 g/15 mL (1.436 kcal/mL), and they were placed in an indirect calorimeter (Oxymax) chamber manufactured by Columbus Instruments, and RQ was recorded every 10 min. RQ values were confirmed about 1 hr after the start of the measurement and the animals were grouped (5 per group) such that a difference between groups would be small. For medication, a solvent (0.5% Methyl Cellulose, Wako Pure Chemical Industries, Ltd.) or a test compound (0.5% Methyl Cellulose suspension) was administered by gavage at 5 mL/kg. RQ was measured at 10 minute intervals from 0 to 3 hours after administration, and the average thereof was calculated. All values are shown in mean±standard deviation and statistical analysis was performed by the Dunnett-test.

[2] = Body weight after 4 weeks of oral administration in rats on Western diet (anti-obesity action); type: in vivo, rat; settings: male F344/Jcl rats; for body weight after administration for 4 weeks: Western diet, Mean ± S.D., N = 6
Description: 6-week-old male F344/Jcl rats (CLEA Japan, Inc., Tokyo) were individually reared immediately after purchase and Western diet (D12079B, Research diet) was given. From the next day, an acclimation dosing (0.5% Methyl Cellulose, 5 mL/kg, oral administration) was started (once between 8:00 AM and 11:00 AM) and body weight and food consumption amount were appropriately measured. The rats with body weight and consumption amount extremely out of the average values in the acclimation dosing period were excluded. At the stage of 7-week-old, the body weight, food consumption amount, and body fat by Echo-MRI were measured, and the rats were grouped (6 per group) based on these measurement results. During 4 weeks of the test period, body weight was measured between 8:00 AM and 11:00 AM, and a solvent (0.5% Methyl Cellulose) or a test compound (0.5% Methyl Cellulose suspension) was consecutively administered by gavage at 5 mL/kg.
4 Weeks later, the body weight was measured in the morning. All values show mean±standard deviation and Williams' test and t-test were used for statistical analysis.

T1 sequence (O00763 117-2458 limits assumed): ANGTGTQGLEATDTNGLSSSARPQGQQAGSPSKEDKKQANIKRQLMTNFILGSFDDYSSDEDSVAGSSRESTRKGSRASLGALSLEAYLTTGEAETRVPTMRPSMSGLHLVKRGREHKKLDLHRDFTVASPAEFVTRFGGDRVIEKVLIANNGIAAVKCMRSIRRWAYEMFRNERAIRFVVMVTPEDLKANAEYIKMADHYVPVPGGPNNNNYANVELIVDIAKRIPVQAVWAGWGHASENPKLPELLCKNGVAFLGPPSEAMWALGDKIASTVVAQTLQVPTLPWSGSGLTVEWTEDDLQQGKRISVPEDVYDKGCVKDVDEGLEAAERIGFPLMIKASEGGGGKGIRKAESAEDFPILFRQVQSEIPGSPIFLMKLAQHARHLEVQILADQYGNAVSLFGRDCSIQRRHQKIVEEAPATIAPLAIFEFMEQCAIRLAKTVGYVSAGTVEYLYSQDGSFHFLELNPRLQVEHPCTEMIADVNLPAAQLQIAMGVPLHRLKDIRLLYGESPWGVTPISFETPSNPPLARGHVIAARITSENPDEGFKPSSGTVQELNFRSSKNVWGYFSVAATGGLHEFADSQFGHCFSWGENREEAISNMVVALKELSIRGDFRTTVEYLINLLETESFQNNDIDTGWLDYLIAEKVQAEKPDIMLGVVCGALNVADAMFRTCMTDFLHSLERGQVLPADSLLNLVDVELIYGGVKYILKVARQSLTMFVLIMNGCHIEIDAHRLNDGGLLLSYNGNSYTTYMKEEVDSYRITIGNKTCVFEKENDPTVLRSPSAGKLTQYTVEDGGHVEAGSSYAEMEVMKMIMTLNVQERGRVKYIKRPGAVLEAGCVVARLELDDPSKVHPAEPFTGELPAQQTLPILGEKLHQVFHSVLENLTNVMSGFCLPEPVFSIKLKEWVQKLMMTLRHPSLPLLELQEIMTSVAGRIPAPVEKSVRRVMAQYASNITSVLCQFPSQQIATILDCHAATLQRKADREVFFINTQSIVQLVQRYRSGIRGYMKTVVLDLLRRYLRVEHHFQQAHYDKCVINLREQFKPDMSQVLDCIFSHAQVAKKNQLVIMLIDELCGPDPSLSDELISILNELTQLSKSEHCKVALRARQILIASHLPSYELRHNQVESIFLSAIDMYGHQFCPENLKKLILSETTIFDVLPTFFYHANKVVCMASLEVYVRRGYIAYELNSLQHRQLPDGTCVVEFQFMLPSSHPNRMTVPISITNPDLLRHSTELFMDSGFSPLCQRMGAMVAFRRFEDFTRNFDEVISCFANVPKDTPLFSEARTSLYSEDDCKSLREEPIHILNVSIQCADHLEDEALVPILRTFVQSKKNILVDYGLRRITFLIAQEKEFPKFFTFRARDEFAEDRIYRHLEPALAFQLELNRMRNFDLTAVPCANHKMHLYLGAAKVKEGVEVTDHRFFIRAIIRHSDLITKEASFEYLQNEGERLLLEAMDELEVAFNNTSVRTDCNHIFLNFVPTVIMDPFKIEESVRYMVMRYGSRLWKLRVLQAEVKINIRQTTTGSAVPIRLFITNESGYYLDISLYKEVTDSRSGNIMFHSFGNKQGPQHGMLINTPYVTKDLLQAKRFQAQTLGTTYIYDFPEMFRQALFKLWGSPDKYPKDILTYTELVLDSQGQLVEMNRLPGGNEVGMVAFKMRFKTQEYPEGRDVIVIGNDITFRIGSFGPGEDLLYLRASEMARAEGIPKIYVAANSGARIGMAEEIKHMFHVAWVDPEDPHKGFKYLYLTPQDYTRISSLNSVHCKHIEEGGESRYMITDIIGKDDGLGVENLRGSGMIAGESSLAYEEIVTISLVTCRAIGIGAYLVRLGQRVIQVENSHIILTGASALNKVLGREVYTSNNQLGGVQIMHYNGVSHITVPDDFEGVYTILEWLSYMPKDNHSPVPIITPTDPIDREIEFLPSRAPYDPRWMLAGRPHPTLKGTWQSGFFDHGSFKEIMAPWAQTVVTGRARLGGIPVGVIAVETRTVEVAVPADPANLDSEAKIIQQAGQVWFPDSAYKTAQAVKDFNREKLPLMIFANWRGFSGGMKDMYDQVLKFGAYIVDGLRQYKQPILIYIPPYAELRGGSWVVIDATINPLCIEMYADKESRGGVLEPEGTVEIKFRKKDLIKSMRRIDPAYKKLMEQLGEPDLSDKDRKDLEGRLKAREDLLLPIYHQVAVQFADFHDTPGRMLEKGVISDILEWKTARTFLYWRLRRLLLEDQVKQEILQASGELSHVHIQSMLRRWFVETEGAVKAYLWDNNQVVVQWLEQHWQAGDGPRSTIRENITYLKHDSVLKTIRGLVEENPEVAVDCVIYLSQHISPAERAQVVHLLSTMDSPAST

CC(=O)NC(C)CCC1CCN(c2nc3ccc(OCC4CC4)cc3o2)CC1 (racemic) [Example 5, N-(3-{1-[6-(cyclopropylmethoxy)-1,3-benzoxazol-2-yl]piperidin-4-yl}-1-methylpropyl)acetamide]
melting point: 131 to 132 °C | inhibition at 10 µM (human ACC2): 104%

CC(=O)N[C@@H](C)COC1CCN(c2nc3ccc(OCC4CC4)cc3o2)CC1 [Example 1, N-[(1S)-2-({1-[6-(cyclopropylmethoxy)-1,3-benzoxazol-2-yl]piperidin-4-yl}oxy)-1-methylethyl]acetamide]
melting point: 122 to 123 °C | average RQ of 0 to 3 hours after administration [1]: 0.795 ± 0.013 | comparison with control group (body weight after 4 weeks) ([2]; 20 mg/kg/day by gavage): −6.1% | body weight after administration for 4 weeks ([2]; 20 mg/kg/day by gavage): 265.1 ± 7.2 | inhibition at 10 µM (human ACC2): 97%

CC(=O)N[C@@H](C)COC1CCN(c2nc3cc(OCC4CC4)ccc3o2)CC1 [Example 2, N-[(1S)-2-({1-[5-(cyclopropylmethoxy)-1,3-benzoxazol-2-yl]piperidin-4-yl}oxy)-1-methylethyl]acetamide]
melting point: 99 to 100 °C | average RQ of 0 to 3 hours after administration [1]: 0.787 ± 0.019 | comparison with control group (body weight after 4 weeks) ([2]; 10 mg/kg/day by gavage): −5.4% | body weight after administration for 4 weeks ([2]; 10 mg/kg/day by gavage): 267.2 ± 4.1 | comparison with control group (body weight after 4 weeks) ([2]; 20 mg/kg/day by gavage): −6.0% | body weight after administration for 4 weeks ([2]; 20 mg/kg/day by gavage): 265.4 ± 10.8 | inhibition at 10 µM (human ACC2): 100%

CC(=O)N[C@@H](C)COC1CCN(c2nc3cc(OCC4CC4)ccc3s2)CC1 [Example 3, N-[(1S)-2-({1-[5-(cyclopropylmethoxy)-1,3-benzothiazol-2-yl]piperidin-4-yl}oxy)-1-methylethyl]acetamide]
inhibition at 10 µM (human ACC2): 104%

CC(COC1CCN(c2nc3ccc(OCC4CC4)cc3o2)CC1)Nc1ccon1 (stereo not drawn) [Example 4, N-[2-({1-[6-(cyclopropylmethoxy)-1,3-benzoxazol-2-yl]piperidin-4-yl}oxy)-1-methylethyl]isoxazol-3-amine]
inhibition at 10 µM (human ACC2): 100%

CC(=O)N[C@@H](C)CCC1CCN(c2nc3ccc(OCC4CC4)cc3o2)CC1 [Example 5a, N-[(1S)-(3-{1-[6-(cyclopropylmethoxy)-1,3-benzoxazol-2-yl]piperidin-4-yl}-1-methylpropyl)]acetamide]
melting point: 138.2 to 138.4 °C | inhibition at 10 µM (human ACC2): 106%

CC(=O)N[C@@H](C)COC1CCN(c2nc3cc(OCC4CCC4)ccc3o2)CC1 [Example 6, N-[(1S)-2-({1-[5-(cyclobutylmethoxy)-1,3-benzoxazol-2-yl]piperidin-4-yl}oxy)-1-methylethyl]acetamide]
melting point: 109 to 110 °C | inhibition at 10 µM (human ACC2): 98%

Cc1conc1NC(C)COC1CCN(c2nc3ccc(OCC4CC4)cc3o2)CC1 (stereo not drawn) [Example 7, N-[2-({1-[6-(cyclopropylmethoxy)-1,3-benzoxazol-2-yl]piperidin-4-yl}oxy)-1-methylethyl]-4-methylisoxazol-3-amine]
inhibition at 10 µM (human ACC2): 100%

CC(=O)N[C@@H](C)COC1CCN(c2nc3ccc(OCC(C)C)cc3o2)CC1 [Example 33, N-[(1S)-1-methyl-2-({1-[6-(2-methylpropoxy)-1,3-benzoxazol-2-yl]piperidin-4-yl}oxy)ethyl]acetamide]
melting point: 103 to 105 °C | inhibition at 10 µM (human ACC2): 99%

CC(=O)N[C@@H](C)COC1CCN(c2nc3ccc(OCC4CCC4)cc3o2)CC1 [Example 34, N-[(1S)-2-({1-[6-(cyclobutylmethoxy)-1,3-benzoxazol-2-yl]piperidin-4-yl}oxy)-1-methylethyl]acetamide]
inhibition at 10 µM (human ACC2): 102%

CC(=O)N[C@@H](C)COC1CCN(c2nc3ccc(OCCC4CC4)cc3o2)CC1 [Example 35, N-[(1S)-2-({1-[6-(2-cyclopropylethoxy)-1,3-benzoxazol-2-yl]piperidin-4-yl}oxy)-1-methylethyl]acetamide]
melting point: 99.3 to 99.6 °C | inhibition at 10 µM (human ACC2): 102%

CC(=O)NC(C)CO[C@H]1CC[C@H](c2cc3ccc(OCC4CC4)cc3o2)CC1 (stereo partly drawn) [Example 38, N-[2-({trans-4-[6-(cyclopropylmethoxy)-1-benzofuran-2-yl]cyclohexyl}oxy)-1-methylethyl]acetamide]
melting point: 104 to 105 °C

CC(=O)NC(C)CO[C@H]1CC[C@H](c2nc3ccc(OCC4CC4)cc3o2)CC1 (stereo partly drawn) [Example 39, N-[2-({trans-4-[6-(cyclopropylmethoxy)-1,3-benzoxazol-2-yl]cyclohexyl}oxy)-1-methylethyl]acetamide]
melting point: 131 to 132 °C

CC(=O)N[C@@H](C)CO[C@H]1CC[C@H](n2cc3ccc(OCCC4CC4)cc3n2)CC1 [Example 40, N-[(1S)-2-({trans-4-[6-(2-cyclopropylethoxy)-2H-indazol-2-yl]cyclohexyl}oxy)-1-methylethyl]acetamide]
melting point: 98 to 99 °C

CC(=O)NC(C)CC[C@H]1CC[C@H](n2cc3ccc(OCC4CC4)cc3n2)CC1 (stereo partly drawn) [Example 41, N-(3-{trans-4-[6-(cyclopropylmethoxy)-2H-indazol-2-yl]cyclohexyl}-1-methylpropyl)acetamide]
melting point: 139 to 140 °C
